“Also recorded” adds a separate entry of the source.

The target in one assay is PfDPCK (Plasmodium falciparum, UniProt Q8IL34). The assay is described as follows: Mechanism of PfDPCK inhibition by Lineweaver-Burk plot. It counts as biochemical. The method, then: In order to understand the mechanism of PfDPCK inhibition of the identified compounds, we independently selected compounds from 359 PfDPCK-specific inhibitor candidates (showing >40% inhibition at 10 μM against PfDPCK), based on the more stringent criteria of >80% inhibition at 10 μM against PfDPCK and <10% inhibition against HsCOASY, to yield 30 hits. The hits were prioritized using a multiparameter optimization (MPO) scoring model, developed by MMV (https://www.optibrium.com/downloads/scoring-profiles/mmv-antimalarial-scoring-profile/) based on calculated physicochemical properties, including molecular weight, logP, hydrogen bond donors and acceptors, rotatable bonds, and structural alerts ([20], [21]). We finally chose six representative compounds (A-15, A-33, and A-69, shown in Table S1, and other three compounds; A-126, A-127, and A-128) by manual inspection with “chemist eye” for chemical attractiveness (druglikeness). […] Furthermore, two compounds, A-33 and A-69, are considered to be pan-assay interference compounds (PAINS) (phenolic Mannich base) ([22]). We consequently focused on two commercially available compounds (A-15 and A-127) (Fig. 6A) and investigated their mechanism of inhibition. We differentiated the type of inhibition by Lineweaver-Burk plot with various concentrations of one substrate (dephospho-CoA or ATP), while the other substrate was given in saturating concentrations in kinetic studies (Fig. 5).
Chain of PfDPCK (Q8IL34 entry or part of it): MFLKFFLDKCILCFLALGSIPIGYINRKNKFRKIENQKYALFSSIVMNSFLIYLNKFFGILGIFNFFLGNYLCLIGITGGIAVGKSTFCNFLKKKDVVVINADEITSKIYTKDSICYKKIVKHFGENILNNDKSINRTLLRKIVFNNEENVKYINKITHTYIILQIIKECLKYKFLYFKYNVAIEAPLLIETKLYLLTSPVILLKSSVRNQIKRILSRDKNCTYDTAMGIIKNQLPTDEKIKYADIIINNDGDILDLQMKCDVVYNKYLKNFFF
FIG 5 Lineweaver-Burk plots showing inhibition of two compounds, compound A-15 (A, B) and compound A-127 (C, D) on the PfDPCK activity. The enzymatic activities were determined with various concentrations of dephospho-CoA and 200 μM ATP (A, C) or various concentrations of ATP and 200 μM dephospho-CoA (B, D) in the presence of a range of concentrations of inhibitors. Data are shown in means ± SEMs of triplicate.
(§1) PfDPCK and HsCOASY activity was measured by quantifying ADP produced in the reaction by a coupling assay using the ADP Hunter Plus assay kit (DiscoverX, USA) according to the manufacturer's instructions. Briefly, enzymatic reactions were carried out in a 20-μL mixture of assay buffer containing 15 mM HEPES, 20 mM NaCl, 1 mM EGTA, 0.02% Tween 20, 10 mM MgCl2, 0.1% bovine gamma globulin, 50 ng of recombinant PfDPCK or HsCOASY, 4 to 256 μM dephospho-CoA, and 5 to 300 μM ATP on a black microplate. All reactions were performed for 2 h, reagents A and B were added, and they were then reincubated for 60 min at 30°C. After reactions were terminated by addition of ADP Hunter Stop solution, the fluorescent signal was measured using SpectraMax Paradigm (Molecular Devices, CA, USA) at excitation and emission wavelengths of 530 and 590 nm, respectively. The kinetic parameters were calculated using the nonlinear regression function using the single saturating concentrations of the substrates by the GraphPad Prism software (GraphPad Software Inc., San Diego, CA). The experiments were repeated three times in triplicate using proteins purified from independent cultures. Kinetic values of enzymes are presented as the means ± standard errors (SEs).

A further assay relates to HepG2 cell line. Briefly: Cytotoxicity assay (Cell Counting Kit-8). Particulars: Homo sapiens, HepG2; Table S1; means ± SEM; read-out: IC50 (μM) HepG2. It counts as cell-based, human. The method, then:
Cytotoxicity against human cells was evaluated using the human liver carcinoma HepG2 cell line. HepG2 cells were cultured in D-MED supplemented with 4 mM L-glutamine and 10% fetal bovine serum (FBS) in a 75-cm^2 flask (Violamo) at 37°C. For the cytotoxicity assay, HepG2 cells in semiconfluent state were detached from the flask by incubating the cells with 5 mL D-MEM containing 0.25% trypsin-EDTA. After detachment, HepG2 cells were resuspended in D-MEM-supplemented L-glutamine and FBS, and cell viability was evaluated by incubating cells with 0.4% Trypan blue on a hemocytometer. An approximately 50-μL suspension containing 3,000 cells was dispensed into each well on a 384-well clear-bottom plate using a Multidrop Combi dispenser. Compounds dissolved in DMSO had been dispensed into wells to yield final concentrations of 100, 20, 4, 0.8, and 0.2 μM before cells were added. After cells were added to the plates, they were cultured at 37°C under 5% CO2. After 48 h cultivation, 5 μL of Cell Counting Kit-8 (Dojindo, Japan) was added, and the plates were further incubated for 2 h to assess cell growth and survival.

A further assay deals with T1, HsCOASY (Homo sapiens, UniProt Q13057).
T1 construct: His tag (pCold1 vector); made in house; host or cells: Escherichia coli BL21Star (DE3)
T1 sequence (Q13057 1-564): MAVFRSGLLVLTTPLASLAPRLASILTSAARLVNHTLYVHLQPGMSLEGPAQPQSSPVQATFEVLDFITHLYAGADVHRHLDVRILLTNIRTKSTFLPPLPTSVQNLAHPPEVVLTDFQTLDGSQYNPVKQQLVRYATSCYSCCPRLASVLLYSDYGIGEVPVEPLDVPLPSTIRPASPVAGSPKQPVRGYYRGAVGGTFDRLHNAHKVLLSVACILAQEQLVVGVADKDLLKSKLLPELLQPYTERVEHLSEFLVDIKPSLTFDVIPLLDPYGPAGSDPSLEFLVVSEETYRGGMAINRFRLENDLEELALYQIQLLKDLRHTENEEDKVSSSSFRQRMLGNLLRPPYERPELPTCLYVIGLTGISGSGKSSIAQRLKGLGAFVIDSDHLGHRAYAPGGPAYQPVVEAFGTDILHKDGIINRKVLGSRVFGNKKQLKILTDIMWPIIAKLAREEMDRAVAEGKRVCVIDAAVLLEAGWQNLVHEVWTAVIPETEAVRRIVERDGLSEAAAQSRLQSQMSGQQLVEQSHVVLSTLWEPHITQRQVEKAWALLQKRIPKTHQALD
Briefly: HsCOASY counterassay. Particulars: reciprocal plot analysis. The assay is classed as biochemical. The method, then: as §1, with “Kinetic values of enzymes are presented as the means ± standard errors (SEs).” left out
The primary hits were reassayed in quadruplicate (n = 4) as in the primary screening. We next tested the confirmed secondary hits to exclude false positives that inhibit coupled fluorescence assay, but not PfDPCK. […]

For the compound `CC(C)(C)c1cc(C(=O)Cn2c(NCCO)nc3ccccc32)cc(C(C)(C)C)c1O` [Compound A-15], the Ki on PfDPCK (in respect of ATP, 200 μM dephospho-CoA) was found to be 10.4 µM; at PfDPCK (in respect of dephospho-CoA, 200 μM ATP), 0.47 µM. In addition, the type of inhibition entry on PfDPCK (in respect of dephospho-CoA and ATP, Lineweaver-Burk plot) was “competitively inhibits; also recorded: competitive inhibition”. Besides, in the assay with HepG2 cell line, the IC50 worked out at 29.9 ± 3.61 µM. Further, the “inhibition of HsCOASY” value against HsCOASY is “inhibits PfDPCK, but not HsCOASY”.

For the origin of these results see PMC9664868, “Dephospho-Coenzyme A Kinase Is an Exploitable Drug Target against Plasmodium falciparum: Identification of Selective Inhibitors by High-Throughput Screening of a Large Chemical Compound Library” (Antimicrobial Agents and Chemotherapy, 2022).
